Results from patent publication US9476053B2, “Methods and compositions for inhibition of immune responses and autoimmunity” (Dynavax Technologies Corporation, priority 2007, dated 2016).
Read-outs that look alike come from different tables or passages of the source.

Assays:
TLR9 = biological target: T1, TLR9 (Homo sapiens, UniProt Q9NR96); test: TLR9 dependent cell responses (statement in description); assay type: cell-based
T1 sequence (Q9NR96 26-1032): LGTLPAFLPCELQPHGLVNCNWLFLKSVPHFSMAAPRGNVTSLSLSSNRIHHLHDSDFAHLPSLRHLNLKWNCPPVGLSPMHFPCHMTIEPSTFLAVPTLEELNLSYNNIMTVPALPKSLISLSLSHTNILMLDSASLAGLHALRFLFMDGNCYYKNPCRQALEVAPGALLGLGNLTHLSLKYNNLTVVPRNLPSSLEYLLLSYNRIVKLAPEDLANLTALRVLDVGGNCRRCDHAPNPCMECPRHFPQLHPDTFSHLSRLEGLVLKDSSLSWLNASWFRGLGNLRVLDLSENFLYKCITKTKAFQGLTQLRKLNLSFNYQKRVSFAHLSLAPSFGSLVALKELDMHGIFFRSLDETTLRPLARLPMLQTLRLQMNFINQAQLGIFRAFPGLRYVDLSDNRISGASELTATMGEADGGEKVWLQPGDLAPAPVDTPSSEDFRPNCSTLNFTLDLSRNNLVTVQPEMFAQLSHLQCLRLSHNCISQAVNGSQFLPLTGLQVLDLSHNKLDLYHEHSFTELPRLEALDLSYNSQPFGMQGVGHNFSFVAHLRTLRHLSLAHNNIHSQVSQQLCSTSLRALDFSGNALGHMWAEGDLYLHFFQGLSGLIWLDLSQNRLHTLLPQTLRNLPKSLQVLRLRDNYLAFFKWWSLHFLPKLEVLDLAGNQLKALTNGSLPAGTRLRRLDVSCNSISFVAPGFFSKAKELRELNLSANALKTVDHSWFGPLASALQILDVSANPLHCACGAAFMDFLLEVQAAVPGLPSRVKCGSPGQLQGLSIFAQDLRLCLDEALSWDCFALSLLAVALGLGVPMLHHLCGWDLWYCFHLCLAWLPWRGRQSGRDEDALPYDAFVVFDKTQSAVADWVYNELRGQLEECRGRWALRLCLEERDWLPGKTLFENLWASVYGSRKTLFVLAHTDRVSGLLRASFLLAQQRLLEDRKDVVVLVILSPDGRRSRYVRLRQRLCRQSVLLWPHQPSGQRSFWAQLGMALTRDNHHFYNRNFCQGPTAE

TLR7 [1] = biological target: T2, TLR7 (Homo sapiens, UniProt Q9NYK1); test: TLR7 dependent cell responses (statement in description); assay type: cell-based
T2 sequence (Q9NYK1 27-1049): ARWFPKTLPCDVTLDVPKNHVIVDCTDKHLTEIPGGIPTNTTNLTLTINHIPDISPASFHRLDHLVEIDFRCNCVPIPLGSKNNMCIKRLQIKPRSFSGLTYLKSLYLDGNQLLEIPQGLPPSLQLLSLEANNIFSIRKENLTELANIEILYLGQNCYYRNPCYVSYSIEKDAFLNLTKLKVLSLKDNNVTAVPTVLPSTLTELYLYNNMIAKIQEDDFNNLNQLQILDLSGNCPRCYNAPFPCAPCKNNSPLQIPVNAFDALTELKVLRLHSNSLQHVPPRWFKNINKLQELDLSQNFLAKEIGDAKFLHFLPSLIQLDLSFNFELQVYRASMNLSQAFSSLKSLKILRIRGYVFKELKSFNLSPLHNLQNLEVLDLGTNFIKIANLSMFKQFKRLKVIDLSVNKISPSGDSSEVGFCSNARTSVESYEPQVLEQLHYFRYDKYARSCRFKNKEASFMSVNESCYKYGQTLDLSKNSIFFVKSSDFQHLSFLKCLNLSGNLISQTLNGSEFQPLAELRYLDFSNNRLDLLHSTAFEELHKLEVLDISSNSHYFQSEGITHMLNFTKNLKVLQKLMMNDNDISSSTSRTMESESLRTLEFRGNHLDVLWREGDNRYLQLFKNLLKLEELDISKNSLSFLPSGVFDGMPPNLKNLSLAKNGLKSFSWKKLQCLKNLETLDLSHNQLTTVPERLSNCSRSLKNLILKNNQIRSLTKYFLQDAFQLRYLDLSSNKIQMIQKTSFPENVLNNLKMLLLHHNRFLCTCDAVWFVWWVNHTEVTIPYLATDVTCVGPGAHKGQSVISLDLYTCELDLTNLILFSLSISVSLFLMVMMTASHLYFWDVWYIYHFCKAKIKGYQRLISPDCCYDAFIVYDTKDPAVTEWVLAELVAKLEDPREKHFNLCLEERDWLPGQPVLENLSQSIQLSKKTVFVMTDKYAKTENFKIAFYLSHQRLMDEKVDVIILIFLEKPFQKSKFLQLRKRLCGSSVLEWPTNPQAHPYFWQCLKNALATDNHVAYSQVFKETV

TLR7 [2] = biological target: T3, TLR7 (Mus musculus, UniProt P58681); test: Mouse splenocytes stimulated with R848 (TLR7 ligand), IL-6 by immunoassay; assay type: cell-based
T3 construct: The dispersed splenocytes were pelleted by centrifugation, then resuspended in fresh medium; endogenous in cells; host or cells: primary splenocytes of BALB/c mice
T3 sequence (P58681 27-1050): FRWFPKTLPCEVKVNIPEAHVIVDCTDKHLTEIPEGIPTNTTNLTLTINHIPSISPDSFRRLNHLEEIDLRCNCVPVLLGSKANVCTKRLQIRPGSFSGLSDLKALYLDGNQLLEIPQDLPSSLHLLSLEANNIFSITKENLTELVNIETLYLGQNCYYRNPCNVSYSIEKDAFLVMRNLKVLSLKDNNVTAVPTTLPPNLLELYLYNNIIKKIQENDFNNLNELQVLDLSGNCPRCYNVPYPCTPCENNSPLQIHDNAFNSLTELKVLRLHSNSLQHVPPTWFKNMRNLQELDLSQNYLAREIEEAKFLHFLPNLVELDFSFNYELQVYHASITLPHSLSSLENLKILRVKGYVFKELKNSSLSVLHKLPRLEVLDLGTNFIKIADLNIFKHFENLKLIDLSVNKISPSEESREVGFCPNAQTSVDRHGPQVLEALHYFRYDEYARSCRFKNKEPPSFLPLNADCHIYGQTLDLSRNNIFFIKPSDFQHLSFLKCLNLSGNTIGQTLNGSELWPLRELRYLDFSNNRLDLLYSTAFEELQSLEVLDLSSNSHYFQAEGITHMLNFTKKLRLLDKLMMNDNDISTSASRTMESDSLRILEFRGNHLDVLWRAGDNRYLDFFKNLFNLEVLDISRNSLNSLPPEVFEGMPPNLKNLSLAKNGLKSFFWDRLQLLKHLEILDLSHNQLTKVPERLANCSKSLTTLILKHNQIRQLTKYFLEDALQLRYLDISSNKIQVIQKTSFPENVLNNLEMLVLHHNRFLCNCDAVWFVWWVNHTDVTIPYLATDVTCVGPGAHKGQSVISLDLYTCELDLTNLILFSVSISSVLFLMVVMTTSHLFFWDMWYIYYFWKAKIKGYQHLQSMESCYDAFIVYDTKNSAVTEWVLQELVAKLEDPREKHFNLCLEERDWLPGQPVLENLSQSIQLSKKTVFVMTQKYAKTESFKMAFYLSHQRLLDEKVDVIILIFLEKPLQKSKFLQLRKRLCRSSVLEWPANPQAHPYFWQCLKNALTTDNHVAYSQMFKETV
Method: Modified and unmodified immunoregulatory polynucleotides (IRPs) (i.e., polynucleotides containing at least one modified or unmodified IRS) or control samples were assayed for immunoregulatory (IR) activity of innate immune responses on human and mouse cells.
For mouse cell assays, spleens from 6-12 week-old BALB/c mice spleen were harvested and mechanically dispersed by forcing the digested fragments through metal screens. The dispersed splenocytes were pelleted by centrifugation, then resuspended in fresh medium (RPMI 1640 with 10% fetal calf serum, plus 50 units/mL penicillin, 50 μg/mL streptomycin, 2 mM glutamine, and 0.05 mM β-mercaptoethanol). In a dose-dependent manner, the cells were then stimulated with […] of 1018 ISS (TLR9 ligand; 5′-[…]-3′ (SEQ ID NO:122)) or 1 μM of R848 (TLR7 ligand; a small molecule, an imidazoquinoline also called resiquimod) either alone or in the presence of the tested IRPs. At 48 hours, supernatants were collected and cytokine levels, IL-6, were measured using immunoassays. […]

[3] = Solubility of spacer measured as dialcohol precursor; assay type: physicochemical; settings: dodecyl spacer measured as dialcohol precursor
Method: Thus, the definition of spacers excludes microcarriers or nanocarriers. In addition, a spacer moiety that has low solubility, such as a dodecyl spacer (solubility <5 mg/ml when measured as dialcohol precursor 1,12-dihydroxydodecane) is not preferred because it can reduce the hydrophilicity and activity of the IRC. Preferably, spacer moieties have solubility much greater than 5 mg/ml (e.g., 20 mg/ml, ≦50 mg/ml or 100 mg/ml) when measured as dialcohol precursors.

[4] = test system: plasmacytoid dendritic cells (PDCs); assay type: cell-based, human; settings: read-out: concentration of hydroxycortisone necessary to achieve 50% death of PDCs

| Compound | TLR9 dependent cell responses (TLR9) | TLR7 dependent cell responses (TLR7 [1]) | further results |
| --- | --- | --- | --- |
| 5′-TCCTGGAGGGGTTGT-3′ (chemistry not given here) [SEQ ID NO:17] | greater inhibitory activity |  |  |
| 5′-TGCTTGCAAGCTAGCAAGCA-3′ (chemistry not given here) [SEQ ID NO:33] |  | inhibits |  |
| 5′-TGCTTGCAAGCTAGCAAGCA-HEG-TCCTGGAGGGGTTGT-3′ (TGCTTGCAAGCTAGCAAGCATCCTGGAGGGGTTGT; Two nucleotide segments joined by a hexaethylene glycol (HEG) spacer, nucleotide chemistry not given here) [SEQ ID NO:68] | very active in inhibiting | very active in inhibiting |  |
| 5′-TGCTTGCAAGCTTGCAAGCA-3′ (chemistry not given here) [SEQ ID NO:27] |  | inhibits |  |
| 5′-TGCTTGCAAGCTTGCTAGCA-3′ (chemistry not given here) [SEQ ID NO:34] | The same is also true | The same is also true |  |
| 5′-TGCTTGCAAGCTTGCTAGCA-HEG-TCCTGGAGGGGTTGT-3′ (TGCTTGCAAGCTTGCTAGCATCCTGGAGGGGTTGT; Two nucleotide segments joined by a hexaethylene glycol (HEG) spacer, nucleotide chemistry not given here) [SEQ ID NO:69] | The same is also true | The same is also true |  |
| 5′-UGC UCC UGG AGG GGU UGU-3′ (DNA UGCUCCUGGAGGGGUUGU; all 2'-O-methyl, backbone not given here) [SEQ ID NO:135, all nucleotides modified with a 2′-O-Me modification] |  |  | IL-6 levels compared to unmodified SEQ ID NO:123 (TLR7 [2]): significant decrease |
| OCCCCCCCCCCCCO [1,12-dihydroxydodecane] |  |  | solubility [3]: < 5000 µg/mL |
| C[C@]12CCC(=O)C=C1CC[C@@H]1[C@@H]2[C@@H](O)C[C@@]2(C)[C@H]1CC[C@]2(O)C(=O)CO [hydroxycortisone, reference compound] |  |  | EC50 ([4]; in the presence of CpG-C ISS C274): 2000 nM; EC50 ([4]; in the presence of HSV (HSV-1 KOS strain)): 150 nM; EC50 ([4]; in the presence of HSV and SEQ ID NO:123): 4 nM; EC50 ([4]; in the presence of influenza virus and SEQ ID NO:123): 22 nM; EC50 ([4]; in the presence of influenza virus): 4500 nM; EC50 ([4]; in the presence of the ISS and SEQ ID NO:123): 85 nM |
